Results reported in patent US7763463B2, “Use of cyclic AMP and ascorbic acid to produce dopaminergic neurons from embryonic stem cells” (Geron Corporation, priority 2000, dated 2010).

Key:
Format in all cases: cell-based, human
[1] = tested on: hES cell derived neurons; test: Fura-2 imaging of calcium flux; conditions: of the 53 cells tested; cells responding to GABA, acetylcholine, ATP and elevated potassium; 0.5 mM neurotransmitter, ATP 10 μM
Experimental: Standard fura-2 imaging of calcium flux was used to investigate the functional properties of the hES cell derived neurons. Neurotransmitters studied included GABA, glutamate (E), glycine (G), elevated potassium (50 mM K^+ instead of 5 mM K^+), ascorbic acid (control), dopamine, acetylcholine (ACh) and norepinephrine. The solutions contained 0.5 mM of the neurotransmitter (except ATP at 10 μM) in rat Ringers (RR) solution: 140 mM NaCl, 3 mM KCl, 1 mM MgCl2, 2 mM CaCl2, 10 mM HEPES buffer, and 10 mM glucose. External solutions were set to pH 7.4 using NaOH. Cells were perfused in the recording chamber at 1.2-1.8 mL/min, and solutions were applied by bath application using a 0.2 mL loop injector located ˜0.2 mL upstream of the bath import. Transient rises in calcium were considered to be a response if the calcium levels rose above 10% of the baseline value within 60 sec of application, and returned to baseline within 1-2 min.

[2] = tested on: embryoid bodies from hES cells; test: Embryoid bodies with or without retinoic acid, then NT-3/BDNF; MAP-2 staining; conditions: embryoid bodies maintained in 10 μM RA 4 days; then mitogens, then 10 ng/mL NT-3 and BDNF; without RA ~5%
Experimental: To generate terminally differentiated neurons, the first stage of differentiation was induced by forming embryoid bodies in FBS medium with or without 10 μM retinoic acid (RA). After 4 days in suspension, embryoid bodies were plated onto fibronectin-coated plates in defined medium supplemented with 10 ng/mL human EGF, 10 ng/mL human bFGF, 1 ng/mL human PDGF-AA, and 1 ng/mL human IGF-1. The embryoid bodies adhered to the plates, and cells began to migrate onto the plastic, forming a monolayer.
The cell populations were further differentiated by replating the cells in a medium containing none of the mitogens, but containing 10 ng/mL Neurotrophin-3 (NT-3) and 10 ng/mL brain-derived neurotrophic factor (BDNF). Neurons with extensive processes were seen after about 7 days. […] GaIC positive cells were identified, but the cells were large and flat rather than having complex processes.

[3] = tested on: hES cells; test: Effect of neurotrophins on direct differentiation, β-tubulin positive cell count; conditions: 7 days of differentiation; BDNF 10 ng/mL, neurotrophin-3 1 ng/mL
Experimental: The effect of several members of the neurotrophin growth factor family was examined. hES cells were differentiated by harvesting with collagenase, dissociating, and reseeding onto poly-ornithine coated cover slips. The cells were plated into DMEM/F12+N2+10% FBS overnight. The following day, the serum was removed from the medium and replaced with 10 ng/mL human bFGF and the growth factor being tested. After 24 hours, bFGF was removed from the medium. These cultures were fed every other day. They were fixed after 7 days of differentiation and immunostained for analysis. The number of neurons was evaluated by counting cells positive for β-tubulin. Cultures maintained in the presence of 10 ng/mL brain derived neurotrophic factor (BDNF) formed approximately 3-fold more neurons than the control cultures. Cultures maintained in neurotrophin-3 (1 ng/mL) formed approximately 2-fold more neurons than control cultures.

[4] = tested on: hES cells of the H7 line; test: Direct differentiation: noggin, follistatin and retinoic acid (FIG. 6); conditions: 15 days with Treatment D, cAMP 700 μg; antagonists used for varying time periods
Text: Noggin is apparently important at about the 1 week point (days 5 to 8), while follistatin is important at around the 2 week point (days 13 to 15), maximizing production of mature neurons rather than small neurites.
Virtually no β-tubulin positive neurons were formed in the absence of noggin or follistatin. […] It is hypothesized that initial noggin/follistatin induction generates a neural progenitor cell, which subsequently can be induced to form neurons by the addition of other factors.
Cells were differentiated according to treatment F as previously (left 2 bars) or omitting retinoic acid (right 2 bars).

CC(=O)OCC[N+](C)(C)C [acetylcholine]
cells that responded (calcium rise) [1]: 26

CC1=C(/C=C/C(C)=C/C=C/C(C)=C/C(=O)O)C(C)(C)CCC1 [retinoic acid]
MAP-2 positive cells [2]: ~26%

Nc1ncnc2c1ncn2[C@@H]1O[C@H](COP(=O)(O)OP(=O)(O)OP(=O)(O)O)[C@@H](O)[C@H]1O [ATP]
cells that responded (calcium rise) [1]: 26

NCCCC(=O)O [GABA, γ-amino butyric acid]
cells that responded (calcium rise) [1]: 26

B1: BDNF: brain derived neurotrophic factor, member of the neurotrophin growth factor family (protein, UniProt P23560 19-247, looked up)
Neurotrophic factor BDNF …: APMKEANIRGQGGLAYPGVRTHGTLESVNGPKAGSRGLTSLADTFEHVIEELLDEDQKVRPNEENNKDADLYTSRVMLSSQVPLEPPLLFLLEEYKNYLDAANMSMRVRRHSDPARRGELSVCDSISEWVTAADKKTAVDMSGGTVTVLEKVPVSKGQLKQYFYETKCNPMGYTKEGCRGIDKRHWNSQCRTTQSYVRALTMDSKKRIGWRFIRIDTSCVCTLTIKRGR
neurons formed (β-tubulin positive cells) relative to control cultures [3]: approximately 3 fold

B2: neurotrophin-3: member of the neurotrophin growth factor family (protein, UniProt P20783 139-257, looked up)
Neurotrophin-3: YAEHKSHRGEYSVCDSESLWVTDKSSAIDIRGHQVTVLGEIKTGNSPVKQYFYETRCKEARPVKNGCRGIDDKHWNSQCKTSQTYVRALTSENNKLVGWRWIRIDTSCVCALSRKIGRT
neurons formed (β-tubulin positive cells) relative to control cultures [3]: approximately 2 fold

B3: noggin: TGF-β superfamily antagonist (protein, UniProt Q13253 28-232, looked up)
Noggin: QHYLHIRPAPSDNLPLVDLIEHPDPIFDPKEKDLNETLLRSLLGGHYDPGFMATSPPEDRPGGGGGAAGGAEDLAELDQLLRQRPSGAMPSEIKGLEFSEGLAQGKKQRLSKKLRRKLQMWLWSQTFCPVLYAWNDLGSRFWPRYVKVGSCFSKRSCSVPEGMVCKPSKSVHLTVLRWRCQRRGGQRCGWIPIQYPIISECKCSC
contribution to neuron differentiation [4]: contribute to neuron differentiation, and work synergistically

B4: follistatin: TGF-β superfamily antagonist (protein, UniProt P19883 30-344, looked up)
Follistatin: GNCWLRQAKNGRCQVLYKTELSKEECCSTGRLSTSWTEEDVNDNTLFKWMIFNGGAPNCIPCKETCENVDCGPGKKCRMNKKNKPRCVCAPDCSNITWKGPVCGLDGKTYRNECALLKARCKEQPELEVQYQGRCKKTCRDVFCPGSSTCVVDQTNNAYCVTCNRICPEPASSEQYLCGNDGVTYSSACHLRKATCLLGRSIGLAYEGKCIKAKSCEDIQCTGGKKCLWDFKVGRGRCSLCDELCPDSKSDEPVCASDNATYASECAMKEAACSSGVLLEVKHSGSCNSISEDTEEEEEDEDQDYSFPISSILEW
contribution to neuron differentiation [4]: contribute to neuron differentiation, and work synergistically
